Test results published in patent publication US9028874B2, “Antioxidant nanosphere comprising [1,2]-dithiolane moieties” (Cedars-Sinai Medical Center, priority 2008, dated 2015).

Columns and labels:
[1] = Nanosphere formation by spontaneous emulsification; hydrodynamic size and polydispersity by dynamic light scattering; format: physicochemical; settings: 25 mg/5 mL acetone into 10 mL 0.25% w/v Pluronic F-68 in water
Description: Nanospheres were prepared according to the method using spontaneous emulsification with slight modification. Briefly, 25 mg of the compounds were dissolved in acetone (5 mL). The organic solution was poured under moderate stirring on a magnetic plate into an aqueous phase prepared by dissolving 25 mg of Pluronic F68 in 10 mL bidistilled water (0.25% w/v). Following 15 min of magnetic stirring, the acetone was removed under reduced pressure at room temperature. The nanospheres were filtered through 0.45 μm hydrophilic syringe filter and stored at 4° C. The hydrodynamic size measurement and size distribution of the nanospheres was performed by the dynamic light scattering (DLS) using a Coulter N4-Plus Submicron Particle Sizer (Coulter Corporation, Miami, Fla.). The nanospheres were purified by centrifuging three times at 20,000×g for 30 min at 25° C. and resuspending each time in the same volume of deionized water. […] The size was assessed on three separate batches of the nanosphere formulation. The recovery yield was calculated as follows: RY (%)=(mass of the mALA-containing compounds recovered/mass of the mALA-containing compounds used in formulation)×100%. […] The solution was analyzed for the compounds by RP-HPLC. Separation was performed using 80% acetonitrile (0.1% trifluoroacetic acid, TFA) as mobile phase and the eluent was monitored using UV detector at 330 nm. […]

[2] = DPPH radical scavenging assay, Method A (dissolved DPPH); format: biochemical; settings: Method A: 50 μM DPPH dissolved in ethanol/water; violet to pale yellow
Description: Method A: 5 mL of 100 μM DPPH solution in ethanol was mixed with 5 mL of water, resulting in a final concentration of 50 μM for DPPH. Trolox and ascorbic acid were dissolved in 100 mM sodium phosphate buffer (pH 7.5, 2.5 mM). The concentration of α-tocopherol in nanospheres was adjusted to 2.5 mM. The predetermined amount of Trolox, ascorbic acid solution and nanospheres were added to the DPPH solution using Hamilton syringe carefully to the bottom of 20 mL glass bottle to minimize the premature mixing. After gentle mixing, pictures were taken using digital camera (50000 pxitex).
The antioxidant capability of the nanospheres was assessed by the scavenging activity of DPPH free radical. The DPPH radical scavenging assay is often used as a model for the measurement of lipid radial scavenging activity of antioxidant compounds. […] The DPPH radical scavenging assay is usually performed in a 50:50 mixture of water and organic solvents, commonly ethanol or dimethyl suloxide, in which the DPPH radical is completely dissolved. In this condition (Method A), the violet color of DPPH radical solution converted instantaneously to the pale yellow color, which is indicative of an instantaneous DPPH radical scavenging by the nanospheres (FIG. 6a, Method A).

[3] = DPPH radical scavenging assay, Method B (fine dispersed DPPH suspension); format: biochemical; settings: Method B: DPPH suspension in water
Description: Method B: 400 μL of 1.25 mM DPPH solution in ethanol was added to 9500 μL of water to give a fine dispersed DPPH suspension. Pictures were taken as described above.
In the method B (FIG. 6a), 400 μL of 1.25 mM DPPH solution in ethanol was added to 9500 μL of water to give a fine dispersed DPPH suspension with the particle size of 164±26 nm (polydispersity index 0.03).

formation of stable nanospheres [1]	Structure (SMILES)	DPPH radical scavenging (color change) [2]	DPPH radical scavenging (color change) [3]
failure	O=C(CCCCC1CCSS1)OCCOCCOCCOCCOC(=O)CCCCC1CCSS1 (stereo not drawn) [Compound 4a, 2×Lipoic Acid/Tetraethylene Glycol]		
failure	O=C(CCCCC1CCSS1)OCCN1CCN(CCOC(=O)CCCCC2CCSS2)CC1 (stereo not drawn) [Compound 7a, 2×Lipoic acid/1,4-Bis(2-hydroxyethyl)-piperazine]		
	Cc1c(C)c2c(c(C)c1O)CCC(C)(C(=O)O)O2 (stereo not drawn) [Trolox]	complete and occurred instantaneously	much less color changes
	O=C1O[C@H]([C@@H](O)CO)C(O)=C1O [ascorbic acid]	complete and occurred instantaneously	much less color changes
